Source: PMC12935787, “Clinical pharmacokinetics and pharmacometabolomics of Andrographis paniculata capsules: Bridging drug disposition and metabolic response to precision medicine” (Naunyn-Schmiedeberg's Archives of Pharmacology, 2025)
Where two headings read alike, the source gives them in different places.

Assay: Clinical pharmacokinetics, plasma LC-MS/MS after single oral dose of AP capsules
Type: in vivo, human (healthy volunteers)
Conditions: human, plasma; for concentration at 0 h / concentration at 0.5 h / concentration at 1 h / concentration at 1.5 h / concentration at 2 h / concentration at 2.5 h / concentration at 3 h / concentration at 3.5 h / concentration at 4 h / concentration at 5 h / concentration at 6 h / concentration at 8 h / concentration at 10 h / concentration at 12 h / concentration at 24 h: oral, 2000 mg, 2000 mg AP capsules; for concentration at 0.5 h: 0.50 h; for concentration at 1.5 h: 1.50 h; for concentration at 2.5 h: 2.50 h; for concentration at 3.5 h: 3.50 h
Method: The protocol was published (Tee et al. [2022]).
Seven calibrators ranging from 1, 2, 5,10, 20, 50, and 100 ng mL^−1 were prepared. Frozen plasma was thawed, vortexed-mixes, and processed via protein precipitation: 50 µL plasma plus 100 µL 0.01% ammonia in methanol were vortexed (20 s), centrifuged (14800 rpm, 5 min) and […] supernatant was transferred to 2 mL vials with inserts. LC–MS/MS injection volume: 10 µL. The separation used a Phenomenex Gemini-NX C18 column (150 × 2.1 mm, 5 μm) with 0.01% ammonia (A) and acetonitrile/methanol (1:1, B) as mobile phases (0.30 mL min^-1). The gradient program: 40% B (0 min), linear increase to 95% B (3 min), hold to 5 min, sharp decrease to 10% B (5.01 min), hold to 7 min, return to 40% B (7.01 min), and re-equilibration to 10 min. Mass detection employed an LCMS-8060NX triple quadrupole with heated ESI in negative mode, monitoring specific MRM transitions: andrographolide (349.3 → 331.2/287.1), 14-deoxyandrographolide (331.2 → 108.0/301.1), and neoandrographolide (479.1 → 317.4/161.1).
Pharmacokinetic parameters were determined from plasma samples (5 subjects, 15 time points) analyzed via LC–MS/MS (Shimadzu 8060NX). […] Specific MRM transitions for andrographolide, 14-deoxyandrographolide, and neoandrographolide in plasma samples of subjects are illustrated in Figure S3. […] The dose-dependent concentration–time curves, pharmacokinetics profiles (Fig. 2a, b and c) and comprehensive individual PK data (Table S4) provide a foundation for developing personalized AP dosing regimens, supporting its precision medicine potential.

[1] = S1, read-out: Plasma concentration
[2] = S2, read-out: Plasma concentration
[3] = S3, read-out: Plasma concentration
[4] = S4, read-out: Plasma concentration
[5] = S5, read-out: Plasma concentration
[6] = mean n=5, read-out: Mean concentration
[7] = 2000 mg AP capsules oral, fasting, n=5

C=C1CC[C@@H]2[C@](C)(CO[C@@H]3O[C@H](CO)[C@@H](O)[C@H](O)[C@H]3O)CCC[C@@]2(C)[C@@H]1CCC1=CCOC1=O [neoandrographolide]
concentration at 0 h [1]: 0 ng/mL
concentration at 0.5 h [1]: 13.2 ng/mL
concentration at 1 h [1]: 21.3 ng/mL
concentration at 1.5 h [1]: 41.4 ng/mL
concentration at 2 h [1]: 32 ng/mL
concentration at 2.5 h [1]: 19.7 ng/mL
concentration at 3 h [1]: 24.1 ng/mL
concentration at 3.5 h [1]: 22.2 ng/mL
concentration at 4 h [1]: 6.67 ng/mL
concentration at 5 h [1]: 11.3 ng/mL
concentration at 6 h [1]: 4.57 ng/mL
concentration at 8 h [1]: 0.97 ng/mL
concentration at 10 h [1]: 0 ng/mL
concentration at 12 h [1]: 0 ng/mL
concentration at 24 h [1]: 0 ng/mL
concentration at 0 h [2]: 0 ng/mL
concentration at 0.5 h [2]: 0.77 ng/mL
concentration at 1 h [2]: 45.3 ng/mL
concentration at 1.5 h [2]: 43.7 ng/mL
concentration at 2 h [2]: 28 ng/mL
concentration at 2.5 h [2]: 21.7 ng/mL
concentration at 3 h [2]: 36.5 ng/mL
concentration at 3.5 h [2]: 15.1 ng/mL
concentration at 4 h [2]: 12.8 ng/mL
concentration at 5 h [2]: 16.2 ng/mL
concentration at 6 h [2]: 5.29 ng/mL
concentration at 8 h [2]: 1.69 ng/mL
concentration at 10 h [2]: 0 ng/mL
concentration at 12 h [2]: 0 ng/mL
concentration at 24 h [2]: 0 ng/mL
concentration at 0 h [3]: 0 ng/mL
concentration at 0.5 h [3]: 82.9 ng/mL
concentration at 1 h [3]: 75.6 ng/mL
concentration at 1.5 h [3]: 50 ng/mL
concentration at 2 h [3]: 24.3 ng/mL
concentration at 2.5 h [3]: 13.1 ng/mL
concentration at 3 h [3]: 7.05 ng/mL
concentration at 3.5 h [3]: 0 ng/mL
concentration at 4 h [3]: 0 ng/mL
concentration at 5 h [3]: 0 ng/mL
concentration at 6 h [3]: 0 ng/mL
concentration at 8 h [3]: 0 ng/mL
concentration at 10 h [3]: 0 ng/mL
concentration at 12 h [3]: 0 ng/mL
concentration at 24 h [3]: 0 ng/mL
concentration at 0 h [4]: 0 ng/mL
concentration at 0.5 h [4]: 1.9 ng/mL
concentration at 1 h [4]: 41.1 ng/mL
concentration at 1.5 h [4]: 109 ng/mL
concentration at 2 h [4]: 78.2 ng/mL
concentration at 2.5 h [4]: 53.9 ng/mL
concentration at 3 h [4]: 43.9 ng/mL
concentration at 3.5 h [4]: 33.5 ng/mL
concentration at 4 h [4]: 21.9 ng/mL
concentration at 5 h [4]: 20.6 ng/mL
concentration at 6 h [4]: 11.9 ng/mL
concentration at 8 h [4]: 2.08 ng/mL
concentration at 10 h [4]: 0 ng/mL
concentration at 12 h [4]: 0 ng/mL
concentration at 24 h [4]: 0 ng/mL
concentration at 0 h [5]: 0 ng/mL
concentration at 0.5 h [5]: 15.4 ng/mL
concentration at 1 h [5]: 27.1 ng/mL
concentration at 1.5 h [5]: 48 ng/mL
concentration at 2 h [5]: 86.8 ng/mL
concentration at 2.5 h [5]: 65.8 ng/mL
concentration at 3 h [5]: 59.5 ng/mL
concentration at 3.5 h [5]: 31.1 ng/mL
concentration at 4 h [5]: 18.5 ng/mL
concentration at 5 h [5]: 9.61 ng/mL
concentration at 6 h [5]: 4.65 ng/mL
concentration at 8 h [5]: 1.35 ng/mL
concentration at 10 h [5]: 0 ng/mL
concentration at 12 h [5]: 0 ng/mL
concentration at 24 h [5]: 0 ng/mL
concentration at 0 h [6]: 0 ng/mL
concentration at 0.5 h [6]: 22.8 ng/mL
concentration at 1 h [6]: 42.1 ng/mL
concentration at 1.5 h [6]: 58.5 ng/mL
concentration at 2 h [6]: 49.9 ng/mL
concentration at 2.5 h [6]: 34.9 ng/mL
concentration at 3 h [6]: 34.2 ng/mL
concentration at 3.5 h [6]: 20.4 ng/mL
concentration at 4 h [6]: 12 ng/mL
concentration at 5 h [6]: 11.5 ng/mL
concentration at 6 h [6]: 5.28 ng/mL
concentration at 8 h [6]: 1.22 ng/mL
concentration at 10 h [6]: 0 ng/mL
concentration at 12 h [6]: 0 ng/mL
concentration at 24 h [6]: 0 ng/mL
AUC(0-inf) [7]: 163 ng·h/mL
AUC(0-t) [7]: 161 ng·h/mL
Cmax [7]: 58.5 ng/mL
half-life [7]: 55.8 min
